The text below walks through data of patent US20240425457A1, “COMPOSITIONS AND METHODS FOR SUPPRESSING AND/OR TREATING METABOLIC DISEASES AND/OR A CLINICAL CONDITION THEREOF” (CK Biotech Inc., priority 2018, published 2024).

Entries after “also recorded” stand apart in the source; their conditions may differ. Where two headings read alike, the source gives them in different places.

The IC50 is the midpoint of a concentration-inhibition curve.

Assay [1] concerns the target T1, CXXC5-DVL interaction (Homo sapiens, UniProt O14640).
T1 sequence (O14640 251-323 limits assumed): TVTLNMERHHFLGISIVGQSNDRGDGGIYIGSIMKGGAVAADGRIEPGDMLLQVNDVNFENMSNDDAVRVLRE
Nature of the assay: in vitro CXXC5-DVL PPI inhibition screening assay (FITC-tagged PTD-DBMP on DVL-PDZ, fluorescence). The assay is classed as binding. The conditions noted are these: for inhibition at 30 µM: read-out: CXXC5-DVL inhibitory activity (%). How it is done:
Screening for compounds that inhibit the CXXC5-DVL interaction. […] CELL. DEATH. DIFFER. […] After the addition of 10 μM FITC-tagged PTD-DBMP to each well, each compound in the chemical library or control (DMSO) was treated to the well at a final concentration of 30 μM. The fluorescence intensity was measured using a Fluorstar Optima microplate reader (BGM Lab Technologie, Ortenberg, Germany) and normalized as follows: “(‘compounds-treated group’−‘blank’)/(‘DMSO-treated control’−‘blank’)*100”.

The next assay deals with Wnt/β-catenin signaling. As to the kind of experiment: Wnt/β-catenin signaling (TOPFlash) reporter luciferase assay in HEK293-TOP cells. The assay is classed as cell-based. How it is done: Luciferase reporter assay. HEK293-TOP cells were seeded in 24-well plates. Cells were treated with A3334 at a concentration of 1, 5, and 10 μM for 24 h. Total cell lysates were extracted with 35 μl of 5× Reporter Lysis Buffer per well according to the manufacturer's instructions (Promega). A total of 35 μl of luciferin was added and luciferase activity was measured using a Fluorstar Optima microplate reader.
Wnt/β-catenin signaling reporter luciferase assay. HEK293-TOP cells were seeded were seeded in 96-well plates at a density of 2.5×10^4 cells per well. Cells were treated with individual chemicals at a concentration of 1, 5, 10 µM for 24 h. Total cell lysates were extracted with 25 µl of 5× Reporter Lysis Buffer per well according to the manufacturer's instruction (Promega, Madison, WI). Luciferin (25 µl) was added and luciferase activity was measured using FLUOSTAR (BMG labtech, Offenburg, Germany).

The test system of a further assay is MCD-induced NASH mice. Nature of the assay: MCD diet-induced NASH mice. It counts as in vivo. The following applies: MCD diet 7 weeks, then 25 mg/kg daily oral gavage 3 weeks. How it is done: NASH study. Eight-week-old wild-type male C57BL/6N mice (KOATECH, Seoul, Korea) were fed on the methionine-choline deficient (MCD) diet for 7 weeks, followed by treatment with vehicle, A3334, A3051, or I3O of (25 mg kg^−1) sitagliptin (25 mg kg^−1) for another 3 weeks via daily oral gavage.
Collagen staining. 4 µm-liver tissues sections were stained using two common collagen staining methods. For Masson's trichrome staining, slides were fixed in Bouin's solution for 1 h. After incubation in Weigert's iron hematoxylin solution for 10 min, the slides were stained with Biebrich Scarlet-Acid Fuchsin and Aniline blue for 5 min. The collagen fibers were stained blue and the nuclei were stained black. For picrosirius red staining, sections were stained with Weigert's solution for 8 min and picrosirius red for 1 h. The collagen fibers were stained red with blue nuclei.

For another assay, the system named is HFD-induced obese mice. As to the kind of experiment: HFD-induced obese mice, oral administration during 16 weeks of HFD. The assay is classed as in vivo. The following applies: HFD 16 weeks, 25 mpk oral. How it is done:
Anti-obesity effects of […], a small molecule […] inhibitor. Referring now to FIG. 34, C57BL/6N mice were fed HFD for 16 weeks with or without oral administration of 25 mpk […] or Orlistat. Orlistat is an anti-obesity drug that is thought to act by limiting the absorption of fats from the diet (e.g., a lipase inhibitor). […] Referring now to FIG. 35, The C57BL/6N mice were grown with HFD for 16 weeks with or without oral administration of 25 mpk of […], […], and I3O. […] The increase in adipocyte cell sizes and enhancement of inflammation (evaluated by crown like structures; blue; FIG. 35B) were suppressed by treatment with […] in the HFD mice.

The next assay relates to HFD-fed mice. As to the kind of experiment: HFD-induced obesity/diabetes mice, 5-day oral courses at weeks 8/9 and 12. The following applies: HFD mice; for fasting glucose level / persistence of fasting glucose control after end of treatment: p.o. daily 5 days at weeks 8/9 and 12; for fasting glucose level: A3334, A3051, I3O 25, sitagliptin 50, metformin 100 mg/kg; for levels of GTT/ITT, total cholesterol, fasting glucose, triglyceride, FFAs in serum: A3334 25, metformin 100, sitagliptin 50 mpk (FIG. 38B-38F); for persistence of fasting glucose control after end of treatment: A3334 25, sitagliptin 50, metformin 100 mg/kg. It counts as in vivo. The text has this:
Animals. The generation of Cxxc5^−/− mice has been described previously. Cxxc5 heterozygous mice were intercrossed for four generations to obtain littermate wild-type and Cxxc5^−/− mice and were maintained on a C57BL/6 background. Six-week-old Cxxc5^+/+ and Cxxc5^−/− mice were fed HFD for 8 weeks. Wild-type male C57BL/6 mice (KOATECH, Seoul, Korea) were fed HFD consisting of 60% calories from fat (Research Diet, D12492) for 8 weeks. To validate that the insulin resistance mouse model was successfully established, fasting glucose levels were assessed with a One Touch Ultra glucometer (LifeScan). Subsequently, each HFD-fed mouse with a fasting glucose level higher than 16.7 mmol/L was orally administered A3334 (25 mg kg^−1), sitagliptin (50 mg kg^−1), or metformin (100 mg kg^−1) each day for 5 days at weeks 8 and 12. After the removal of the drugs, mice were maintained for 3 weeks on the HFD. To monitor pancreas regeneration, six-week-old Cxxc5^+/+ and Cxxc5^−/− mice were fed an HFD as above. After dietary treatment for 4 weeks, the mice were intraperitoneally injected with STZ (50 mg/kg/d) for 1 week and the control group were injected with saline. After 2 weeks, Cxxc5^+/+ mice were administered A3334 (25 mg kg^−1) and sitagliptin (50 mg kg^−1) per day by oral gavage for 4 weeks. For GTT or ITT, mice were injected with D-glucose (1.5 g/kg body weight) after overnight starvation or human insulin (0.75 units/kg body weight) after 4 h starvation, respectively. Tail blood was drawn at 0, 15, 30, 60, 120, 180 min intervals and blood glucose level was measured with a One Touch Ultra glucometer. All mice were maintained under temperature-controlled and light-controlled (standard 12 h light/dark cycle) conditions and provided with food and water ad libitum. All protocols were reviewed and approved by the Institutional Review Board of Severance Hospital, Yonsei University College of Medicine (09-013).
Blood chemistry. Total blood of mice was collected by cardiac puncture after fasting. The blood was allowed to clot for 30 min and was then centrifuged for 10 min at 1,000×g to obtain supernatant to measure metabolic parameters. ELISA assay kits were used to assess serum insulin (Millipore), serum FFA (Cayman Chemical), serum adiponectin (ABclonal). The insulin function test was evaluated by HOMA-IR and was calculated as fasting plasma glucose (m mol/l)×fasting serum insulin (mU/l)/22.5. Serum chemistry variables included total cholesterol, HDL-cholesterol, glucose, TG, ALT, AST, ALP, Ca, and Mg concentration. The calibration of serum parameters was performed using the quality control card supplied with the FUJI DRI-CHEM slides whenever slides from a new lot were used. […]
Hematoxylin and eosin (H&E) staining. Dissected tissues were fixed in 4% neutral paraformaldehyde and embedded in paraffin. The paraffin sections were cut at a thickness of 4 μm and subjected to H&E staining. The adipocyte cell size was measured in 20 randomly chosen microscopic areas from 3 independent animals using a Nikon bright-field optical microscope (Nikon TE-2000U). The average adipocyte size was determined using Image J software. […]
Metabolic monitoring and body composition. Metabolic performance (energy intake and energy expenditure) was studied using a PHENOMASTER automated combined indirect calorimetry system (TSE system GmBH). The mice were first acclimated for 24 h in a metabolic chamber and were provided with food and water. They were then subsequently evaluated for 3 days to measure oxygen consumption (VO2), carbon dioxide production (VCO2), ambulatory counts, and respiratory exchange ratio. An LF50 body composition analyzer (Bruker) was used to determine body composition (lean body mass and total body fat) of the mice. The temperature for these studies remained at 22° C., with a 12 h light/dark cycle. Standard in-house software was used for energy expenditure.
Quantitative real-time polymerase chain reaction (PCR). […]

Assay [2] addresses T1, CXXC5-DVL interaction. As to the kind of experiment: Dvl-CXXC5 in vitro binding assay, (PTD-DBMP)-(PZD-DVL), concentration dependent. The following applies: FIG. 33A-33C; unit inferred; read-out: IC50, in vitro (PTD-DBMP)-(PZD-DVL) binding analyses.

`COc1ccc(C)cc1/N=N/c1ccc(O)c2nc(/C=N/O)ccc12` [Compound 1]: the inhibition at 30 µM on CXXC5-DVL interaction [1] (30 μM) amounted to 85.2%. The same measure, in the same setting: the result for `COc1ccc(C2CC(C(F)(F)F)n3ncc(C(=O)O)c3N2)cc1OC` (stereo not shown) [Compound 2] reads 90.6%; that for `Cc1cc(C)c2c(O)nc(SCC(=O)c3ccc(O)c(O)c3)nc2n1` [Compound 3], 88.2%; that for `COC(=O)C1=C(C)N/C(=C/c2cc(C)n(-c3ccccc3F)c2C)C1=O` [Compound 4], 87.6%. On the same count and under the same terms, the result for `O=C(O)C1Sc2[nH]c(=O)sc2C2c3cc(Br)cc(Br)c3OC(=O)C12` (stereo not shown) [Compound 5] reads 90.5%.

For `CCN(CC)S(=O)(=O)c1ccc(OC)c(Nc2cc(-c3ccccc3)nc(C)n2)c1` [Compound 6], at CXXC5-DVL interaction [1] (30 μM), the inhibition at 30 µM was found to be 58.2%.

`COc1ccc(C2CC(=O)C3=C(C2)Nc2onc(C)c2C3c2ccc(O)c(O)c2)cc1OC` (stereo not shown) [Compound 7]: at CXXC5-DVL interaction [1] (30 μM), the inhibition at 30 µM was 90.9%. With `CN1CCc2cc(O)cc3c2[C@H]1Cc1ccc(O)c(O)c1-3` [Compound 9], at CXXC5-DVL interaction [1] (30 μM), the inhibition at 30 µM came out at 89.4%. In the case of `NC(Cc1cc(O)c(O)cc1O)C(=O)O` (stereo not shown) [Compound 10], at CXXC5-DVL interaction [1], the inhibition at 30 µM was 90.3%. For `O=c1cc(O)cc(/C=C/c2ccc(O)c(O)c2)o1` [Compound 11], the inhibition at 30 µM at CXXC5-DVL interaction [1] (30 μM) worked out at 90%. On the same count and under the same terms, with `O=c1c(O)c(-c2cc(O)c(O)c(O)c2)oc2cc(O)cc(O)c12` [Compound 13] the figure was 85.2%; with `CC(N)(Cc1ccc(O)c(O)c1)C(=O)O` (stereo not shown) [Compound 14], 85.2%. On the same count and under the same terms, with `O=c1c(O)c(-c2ccc(O)cc2O)oc2cc(O)cc(O)c12` [Compound 15] the figure was 85.4%. For the compound `CN(C)c1ccc(O)c2c1C[C@H]1C[C@H]3[C@H](N(C)C)C(O)=C(C(N)=O)C(=O)[C@@]3(O)C(O)=C1C2=O` [Compound 16], the inhibition at 30 µM at CXXC5-DVL interaction [1] was 87.9%.

As to `Oc1cc(O)cc(/C=C/c2ccc(O)c(O)c2)c1` [Compound 17], the inhibition at 30 µM at CXXC5-DVL interaction [1] (30 μM) amounted to 85.2%. On the same count and under the same terms, with `O=C(OCCN1CCOCC1)C1(c2ccccc2)CCCCC1` [Compound 18] the figure was 86.8%. Regarding `O=C1Nc2ccccc2/C1=C1/Nc2ccccc2/C1=N\O` [Compound I3O, Indirubin-3′-oxime, reference compound], in the assay on Wnt/β-catenin signaling, the “Wnt/β-catenin (TOPFlash) reporter activity” value was “showed effectiveness in the activation of Wnt/β-catenin pathway”. For the same compound, in the assay with MCD-induced NASH mice, the “hepatosteatosis (H&E)” value is on record as “also reduced hepatosteatosis, but revealed only marginal effects compared to A3334”. The “adipocyte cell size and inflammation (crown like structures)” value in the assay with HFD-induced obese mice was “showed reduction in adipocyte size and anti-inflammatory effects, but those effects were lower when compared to that of the A3334 treatment”. Also, the fasting glucose level result in the assay on HFD-fed mice was “also reduced fasting glucose. However, effects of A3051 and I3O is similar to or little bit weaker than SITA”. Also, the “inhibition of CXXC5-DVL interaction (in words)” value is reported as “identified as initial hits” against CXXC5-DVL interaction [1] and “repeatedly identified as CXXC5-DVL inhibitors” on CXXC5-DVL interaction [1] (listed as #12). Further, the inhibition at 30 µM at CXXC5-DVL interaction [1] (30 μM) is 89%. In addition, at CXXC5-DVL interaction [2], the IC50 was found to be 98.9 nM. On to `CN(C)C(=N)N=C(N)N` [metformin, reference compound], for which, in the assay with HFD-fed mice, the “serum ALT, AST, FFA (and TG)” value is given as “increased by metformin”; the “levels of GTT/ITT, total cholesterol, fasting glucose, triglyceride, FFAs in serum” value is reported as “weaker than those of A3333”; the “persistence of fasting glucose control after end of treatment” value was “this prolonged effect was not shown; also recorded: showed an increased fasting glucose level after their second application”; the fasting glucose level entry was “reduced similarly by treatment with all of these compounds at initial applications”. Turning to `N[C@@H](CC(=O)N1CCn2c(nnc2C(F)(F)F)C1)Cc1cc(F)c(F)cc1F` [sitagliptin, reference compound], in the assay on MCD-induced NASH mice, the “hepatosteatosis (H&E)” value is “also reduced hepatosteatosis, but revealed only marginal effects compared to A3334”. Also, in the assay with HFD-fed mice, the “mRNA of M1 and M2 macrophage marker genes in epiWAT” value is listed as “did not significantly change the expression of inflammation or the Wnt/β-catenin signaling target genes”; the “serum ALT, AST, FFA (and TG)” value is on record as “weakly reduced by SITA even at a higher concentration”; the “levels of GTT/ITT, total cholesterol, fasting glucose, triglyceride, FFAs in serum” value was “weaker than those of A3333”; the “persistence of fasting glucose control after end of treatment” value is reported as “this prolonged effect was not shown; also recorded: showed an increased fasting glucose level after their second application”. Also, in the assay on HFD-fed mice, the fasting glucose level result is given as “reduced similarly by treatment with all of these compounds at initial applications”. Moreover, the “hepatic steatosis (lipid droplets, fatty liver, hepatic TG)” value in the assay on HFD-fed mice (H&E, Oil Red O) is reported as “exhibited only a marginal effect”. In the assay on HFD-fed mice (mRNA), the “Wnt/β-catenin target genes and lipogenesis/inflammation genes in white adipose tissue” value is reported as “did not significantly change the expression of inflammation or the Wnt/β-catenin signaling target genes”; the “lipogenesis and gluconeogenesis genes in liver” value was “reduced by both A3334 and SITA, but A3334 showed better effectiveness”.
